Experimental data as given in the NIST ThermoML archive (doi:10.1016/j.tca.2004.07.014).
± gives the expanded uncertainty stated by the source.

Assays:
[1] = xn = mol fraction of the nth substance listed; conditions: 303.15 K, 101.3 kPa, Liquid; for speed of sound: Linear variable-path acoustic interferometer
[2] = 303.15 K, 101.3 kPa, Liquid; for speed of sound: Linear variable-path acoustic interferometer

CCOC(=O)C(Br)C(=O)OCC [diethyl bromomalonate] + ClC(Cl)Cl
speed of sound ([1]; x1 = 0.098): 989 ± 2 m/s | speed of sound ([1]; x1 = 0.1971): 1010 ± 3 m/s | speed of sound ([1]; x1 = 0.296): 1032 ± 3 m/s | speed of sound ([1]; x1 = 0.4033): 1054 ± 3 m/s | speed of sound ([1]; x1 = 0.5045): 1075 ± 3 m/s | speed of sound ([1]; x1 = 0.5919): 1092 ± 3 m/s | speed of sound ([1]; x1 = 0.6911): 1112 ± 3 m/s | speed of sound ([1]; x1 = 0.7991): 1131 ± 3 m/s | speed of sound ([1]; x1 = 0.8997): 1149 ± 3 m/s | mass density ([1]; x1 = 0.098): 1460.41 ± 1.2 kg/m3 | viscosity ([1]; x1 = 0.098): 0.709 ± 0.01 mPa·s | mass density ([1]; x1 = 0.1971): 1450.47 ± 1.2 kg/m3 | viscosity ([1]; x1 = 0.1971): 0.941 ± 0.013 mPa·s | mass density ([1]; x1 = 0.296): 1441.28 ± 1.3 kg/m3 | viscosity ([1]; x1 = 0.296): 1.2 ± 0.016 mPa·s | mass density ([1]; x1 = 0.4033): 1432.36 ± 1.3 kg/m3 | viscosity ([1]; x1 = 0.4033): 1.507 ± 0.02 mPa·s | mass density ([1]; x1 = 0.5045): 1424.91 ± 1.4 kg/m3 | viscosity ([1]; x1 = 0.5045): 1.84 ± 0.025 mPa·s | mass density ([1]; x1 = 0.5919): 1419.12 ± 1.4 kg/m3 | viscosity ([1]; x1 = 0.5919): 2.141 ± 0.03 mPa·s | mass density ([1]; x1 = 0.6911): 1413.32 ± 1.5 kg/m3 | viscosity ([1]; x1 = 0.6911): 2.501 ± 0.036 mPa·s | mass density ([1]; x1 = 0.7991): 1407.82 ± 1.6 kg/m3 | viscosity ([1]; x1 = 0.7991): 2.899 ± 0.043 mPa·s | mass density ([1]; x1 = 0.8997): 1403.21 ± 1.6 kg/m3 | viscosity ([1]; x1 = 0.8997): 3.253 ± 0.05 mPa·s

CCOC(=O)CCl [ethyl chloroethanoate]
mass density [2]: 1139.18 ± 0.53 kg/m3 | viscosity [2]: 1.275 ± 0.016 mPa·s | speed of sound [2]: 1227 ± 3 m/s

CCOC(=O)CCl [ethyl chloroethanoate] + ClC(Cl)(Cl)Cl
speed of sound ([1]; x1 = 0.095): 933 ± 2 m/s | speed of sound ([1]; x1 = 0.1992): 964 ± 2 m/s | speed of sound ([1]; x1 = 0.298): 994 ± 2 m/s | speed of sound ([1]; x1 = 0.3972): 1025 ± 2 m/s | speed of sound ([1]; x1 = 0.5): 1058 ± 2 m/s | speed of sound ([1]; x1 = 0.5978): 1089 ± 2 m/s | speed of sound ([1]; x1 = 0.6984): 1123 ± 2 m/s | speed of sound ([1]; x1 = 0.8044): 1158 ± 2 m/s | speed of sound ([1]; x1 = 0.8978): 1191 ± 2 m/s | speed of sound ([1]; x1 = 1): 1227 ± 3 m/s | mass density ([1]; x1 = 0.095): 1530.01 ± 1.3 kg/m3 | viscosity ([1]; x1 = 0.095): 0.853 ± 0.022 mPa·s | mass density ([1]; x1 = 0.1992): 1481.59 ± 1.2 kg/m3 | viscosity ([1]; x1 = 0.1992): 0.862 ± 0.022 mPa·s | mass density ([1]; x1 = 0.298): 1436.61 ± 1.1 kg/m3 | viscosity ([1]; x1 = 0.298): 0.862 ± 0.022 mPa·s | mass density ([1]; x1 = 0.3972): 1392.26 ± 1 kg/m3 | viscosity ([1]; x1 = 0.3972): 0.87 ± 0.022 mPa·s | mass density ([1]; x1 = 0.5): 1347.02 ± 0.95 kg/m3 | viscosity ([1]; x1 = 0.5): 0.891 ± 0.023 mPa·s | mass density ([1]; x1 = 0.5978): 1304.82 ± 0.86 kg/m3 | viscosity ([1]; x1 = 0.5978): 0.928 ± 0.023 mPa·s | mass density ([1]; x1 = 0.6984): 1262.23 ± 0.77 kg/m3 | viscosity ([1]; x1 = 0.6984): 0.967 ± 0.024 mPa·s | mass density ([1]; x1 = 0.8044): 1218.14 ± 0.68 kg/m3 | viscosity ([1]; x1 = 0.8044): 1.021 ± 0.025 mPa·s | mass density ([1]; x1 = 0.8978): 1180.11 ± 0.61 kg/m3 | viscosity ([1]; x1 = 0.8978): 1.113 ± 0.027 mPa·s | mass density ([1]; x1 = 1): 1139.18 ± 0.53 kg/m3 | viscosity ([1]; x1 = 1): 1.275 ± 0.031 mPa·s

CCOC(=O)CCl [ethyl chloroethanoate] + ClC(Cl)Cl
speed of sound ([1]; x1 = 0.0989): 990 ± 2 m/s | speed of sound ([1]; x1 = 0.1945): 1014 ± 2 m/s | speed of sound ([1]; x1 = 0.2954): 1038 ± 2 m/s | speed of sound ([1]; x1 = 0.3905): 1062 ± 2 m/s | speed of sound ([1]; x1 = 0.5048): 1091 ± 2 m/s | speed of sound ([1]; x1 = 0.6012): 1115 ± 2 m/s | speed of sound ([1]; x1 = 0.6875): 1137 ± 2 m/s | speed of sound ([1]; x1 = 0.7658): 1159 ± 2 m/s | speed of sound ([1]; x1 = 0.8992): 1198 ± 2 m/s | mass density ([1]; x1 = 0.0989): 1429.89 ± 1.1 kg/m3 | viscosity ([1]; x1 = 0.0989): 0.617 ± 0.009 mPa·s | mass density ([1]; x1 = 0.1945): 1392.15 ± 1 kg/m3 | viscosity ([1]; x1 = 0.1945): 0.687 ± 0.009 mPa·s | mass density ([1]; x1 = 0.2954): 1354.22 ± 0.95 kg/m3 | viscosity ([1]; x1 = 0.2954): 0.759 ± 0.01 mPa·s | mass density ([1]; x1 = 0.3905): 1320.14 ± 0.89 kg/m3 | viscosity ([1]; x1 = 0.3905): 0.806 ± 0.011 mPa·s | mass density ([1]; x1 = 0.5048): 1281.24 ± 0.82 kg/m3 | viscosity ([1]; x1 = 0.5048): 0.852 ± 0.011 mPa·s | mass density ([1]; x1 = 0.6012): 1250.32 ± 0.75 kg/m3 | viscosity ([1]; x1 = 0.6012): 0.9 ± 0.012 mPa·s | mass density ([1]; x1 = 0.6875): 1223.93 ± 0.69 kg/m3 | viscosity ([1]; x1 = 0.6875): 0.943 ± 0.012 mPa·s | mass density ([1]; x1 = 0.7658): 1201.01 ± 0.65 kg/m3 | viscosity ([1]; x1 = 0.7658): 0.989 ± 0.013 mPa·s | mass density ([1]; x1 = 0.8992): 1164.5 ± 0.58 kg/m3 | viscosity ([1]; x1 = 0.8992): 1.114 ± 0.014 mPa·s

ClC(Cl)(Cl)Cl [tetrachloromethane]
mass density [2]: 1574.82 ± 1.4 kg/m3 | viscosity [2]: 0.844 ± 0.011 mPa·s | speed of sound [2]: 905 ± 2 m/s

ClC(Cl)(Cl)Cl [tetrachloromethane] + CCOC(=O)CCl
speed of sound ([1]; x2 = 0): 905 ± 2 m/s | mass density ([1]; x2 = 0): 1574.82 ± 1.4 kg/m3 | viscosity ([1]; x2 = 0): 0.844 ± 0.022 mPa·s

ClC(Cl)Cl [trichloromethane]
mass density [2]: 1470.59 ± 1.2 kg/m3 | viscosity ([2]; Capillary tube (Ostwald / Ubbelohde) method): 0.512 ± 0.005 mPa·s | speed of sound [2]: 967 ± 2 m/s

ClC(Cl)Cl [trichloromethane] + CCOC(=O)CCl
speed of sound ([1]; x2 = 0): 967 ± 2 m/s | mass density ([1]; x2 = 0): 1470.59 ± 1.2 kg/m3 | viscosity ([1]; x2 = 0): 0.512 ± 0.008 mPa·s
